Series [1] can be described thus: Cell viability under FTO inhibition. Type of series: cell-based.
Another series has as its system Wild type BMDMs. The series can be described thus: LPS-induced IL-6 release on BMDMs (ELISA). Conditions: FB23-2 20 uM pre-treatment 1 hour, then 250 ng/ml LPS 6 hours, p<0.0001. Type of series: cell-based, mouse. How it is done:
Primary WT or mutant mouse bone marrow derived macrophages (BMDMs) were isolated as previously described (4). BMDMs were cultured in IMDM (Gibco) basal medium containing 10% fetal bovine serum (FBS), 30% L929 supernatants, nonessential amino acids, sodium pyruvate, 2-mercaptoethanol, and antibiotics. THP-1 cells were cultured in RPMI 1640 medium with 10% FBS and antibiotics. Human RPE cells were isolated as previously described and cultured in DMEM medium with 10% FBS and antibiotics. All cells were maintained at 37° C. in a 5% CO2 environment.
Secreted IL-6 in the BMDMs medium or serum IL-6, TNF-alpha, and IL-1alpha were detected by ELISA (Mouse IL-1 alpha/IL-1F1 DuoSet, R&D Systems, DY400; Mouse IL-6 DuoSet, R&D Systems, DY406; Mouse TNF-alpha DuoSet, R&D Systems, DY410) according to the manufacturer's instructions.
In general terms: An ELISA detects its analyte on a solid surface through an enzyme-linked reagent.

Series [2] has as its system Wild type C57BL/6J mice. As to the kind of experiment: LPS model of septic shock, survival. Type of series: in vivo, mouse. To be noted: FTOi 20 mg/kg i.p. 16 hours before, 10 mg/kg LPS challenge; log-rank p<0.05 vs vehicle. How it is done:
To induced septic shock model, male or female C57BL/6 mice (6 to 10 weeks old) were primed with 10 mg/kg poly(I:C) via intraperitoneal injection. 6 hours later, primed mice were injected with 10 mg/kg LPS and monitored three time daily for a total 5 days. For FTO inhibitor treatment, Wild type C57BL/6J mice were pretreated with 20 mg/kg FB23-2 for 16 hours before sepsis induction. Next day, 20 mg/kg FB23-2 together with 10 mg/kg poly(I:C) were intraperitoneally injected, following with LPS challenge at 6 hours after poly(I:C) priming.

For series [3], the system named is Wild type C57BL/6J mice. As to the kind of experiment: Laser-induced choroidal neovascularization (CNV), CNV volume and F4/80 staining. The series is classed as in vivo, mouse. Conditions: for Neovascularization (CNV volume): FTOi i.p. pretreatment plus 25 ng intravitreous after laser injury, day 7, isolectin B4 staining. The protocol: Laser photocoagulation (532 nm, 180 mW, 100 ms, 75 μm) (OcuLight GL; IRIDEX Corp., Mountain View, CA, USA) was performed bilaterally (volume studies: 4 spots per eye; RNA analyses: 10 spots per eye) in 6- to 8-week-old mice on day 0 to induce CNV as previously described 1-3. For drug treatment, the mice pretreated with FTO inhibitor (FB23-2, SML2694, Sigma) or vehicle (DMSO) through intraperitoneal injection (i.p, 2 mg/kg). Then, the mice were subjected to laser photocoagulation followed by intravitreous injection of the FTO inhibitor (25 ng/0.5 μl per eye) or vehicle. At day 3 after laser injury, the mice were administered the FTO inhibitor (2 mg/kg) or vehicle via intraperitoneal injection. At day 7, the eyes were collected for fluorescein labeled-isolectin B4 and F4/80 staining and for neovascular volume quantification.
RPE flat mounts were prepared as previously described 5. Briefly, at day 3 or 7 after laser injury, mice eyes were enucleated and dissected as retina and sclera-RPE-choroid complexes. The RPE-choroid sheets were immediately fixed in 4% paraformaldehyde (Electron Microscopy Sciences, 50-980-495, USA) in phosphate-buffered saline for 1 hour. […] As described previously^1, CNV volumes were determined by labeling with fluorescein labeled Griffonia Simplicifolia Lectin I (GSL I) isolectin B4 (Vector Laboratories, FL-1201, USA). […] FTO expression was visualized by immunolabeling with anti-FTO antibody (AdipoGen Life Sciences, AG-20A-0083, USA), and the specificity of labeling was assessed using isotype serum immunolabeling. […] Fluorescence images were captured by Nikon AIR laser scanning confocal microscope.
Laser photocoagulation (532 nm, 180 mW, 100 ms, 75 μm) (OcuLight GL; IRIDEX Corp., Mountain View, CA, USA) was performed bilaterally (volume studies: four spots per eye; protein analyses: 20 spots per eye) in 6- to 8-week-old male mice on day 0 to induce CNV in a masked fashion. […] Choroidal neovascularization was visualized using a blue argon laser wavelength (488 nm) and a scanning laser confocal microscope and quantified using Image J software.

SMILES strings stand for the structures.

On to `Cc1noc(C)c1-c1cc(Cl)c(Nc2ccccc2C(=O)NO)c(Cl)c1` [FB23-2], for which, in series [1], the “Adverse effects on cell viability” value is on record as “minimal adverse effects on cell viability”. Also, in the series with Wild type BMDMs, the “LPS-induced IL-6 release” value is on record as “reduces LPS-induced IL-6 release”. In the series with Wild type C57BL/6J mice [2], the “Survival (mice death)” value was “rescues the mice death”. In addition, the “Neovascularization (CNV volume)” value is listed as “inhibits angiogenesis” with Wild type C57BL/6J mice [3] and “significant reduction in neovascularization” in the series with Wild type C57BL/6J mice [3] (listed as selective inhibitor). Also, in the series with Wild type C57BL/6J mice [3] (laser-induced CNV, FTO inhibitor in vivo, F4/80 staining), the F4/80 macrophage recruitment result is reported as “not in F4/80 macrophage recruitment”.

The values are drawn from patent publication US20260174858A1, “TARGETING THE m6A MRNA DEMETHYLASE FTO” (University of Virginia Patent Foundation, priority 2022, published 2026).
